These are literature values, as cited in patent publication US20090082738A1, “Natural Anti-Inflammatory Agents for Reducing Pain” (priority 2007, published 2009).

Structures are written as SMILES.

Series [1] has as its system moderate or severe knee arthritis population. Conditions: 1500 mg of glucosamine.

As to `C/C=C(/C=O)[C@@H](CC=O)CC(=O)OCCc1ccc(O)cc1` [Oleocanthal], the “inhibition of cyclooxygenase (COX)” value with cyclooxygenase (COX) is “non-selective inhibitor of cyclooxygenase (COX)”.

As for `N[C@H]1C(O)O[C@H](CO)[C@@H](O)[C@@H]1O` (some centres unmarked) [glucosamine], in series [1], the “clinical efficacy compared with Celebrex” value is “superior to the prescription medication Celebrex”.
